Data on 20 compounds can be found in PubChem BioAssay AID328 (DTP/NCI, 2004).

The structures appear in SMILES notation. Values joined by “and” are separate entries in the source; they are usually repeats but may differ in a detail not shown here. Identical values can stand only once. Toxic doses and inconclusive results are not listed.

In the assay the test system is BDF1 mice, P388 leukemia ip, median survival T/C. In words: NCI In Vivo Anticancer Drug Screen. Data for tumor model P388 Leukemia (intraperitoneal) in B6D2F1 (BDF1) mice. Particulars: endpoint: median survival time, higher = longer survival. A digest of the protocol: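 Compound-treated tumour-bearing mice were compared with vehicle-treated controls. Survival was recorded, and the value is the treated-group measurement divided by the control-group measurement (T/C).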

Where [1] appears, read: dose: 100.0 mg/kg/injection, schedule: Q04DX003 (ip), vehicle: saline with Tween-80.
The mark [2] stands for this setting: dose: 200.0 mg/kg/injection, schedule: Q04DX003 (ip), vehicle: saline with Tween-80.
Where [3] appears, read: dose: 50.0 mg/kg/injection, schedule: Q01DX009 (ip), vehicle: saline with Tween-80.
Setting [4] is: dose: 100.0 mg/kg/injection, schedule: Q01DX009 (ip), vehicle: saline with Tween-80.
Setting [5] is: dose: 200.0 mg/kg/injection, schedule: Q01DX009 (ip), vehicle: saline with Tween-80.
Where [6] appears, read: dose: 100.0 mg/kg/injection, schedule: Q04DX003 (ip), vehicle: saline.
Setting [7] is: dose: 200.0 mg/kg/injection, schedule: Q04DX003 (ip), vehicle: saline.
The mark [8] stands for this setting: dose: 400.0 mg/kg/injection, schedule: Q04DX003 (ip), vehicle: saline.
[9] abbreviates: dose: 25.0 mg/kg/injection, schedule: Q01DX009 (ip), vehicle: saline.
Setting [10] is: dose: 50.0 mg/kg/injection, schedule: Q01DX009 (ip), vehicle: saline.
The mark [11] stands for this setting: dose: 50.0 mg/kg/injection, schedule: Q04DX003 (ip), vehicle: saline.
Setting [12] is: dose: 100.0 mg/kg/injection, schedule: Q01DX009 (ip), vehicle: saline.
[13] abbreviates: dose: 200.0 mg/kg/injection, schedule: Q01DX009 (ip), vehicle: saline.
Where [14] appears, read: dose: 400.0 mg/kg/injection, schedule: Q04DX003 (ip), vehicle: saline with Tween-80.

Take `Cc1ccc(CO)cc1C`: the T/C reads like this: (dose: 50.0 mg/kg/injection, schedule: Q04DX003 (ip), vehicle: saline with Tween-80) 100 % of control; under setting [1], 100 % of control; under setting [2], 104 % of control.

With `S=c1nc2[nH]c3ccccc3c2n[nH]1`, the T/C reads like this: (dose: 6.25 mg/kg/injection, schedule: Q01DX009 (ip), vehicle: saline with Tween-80) 100 % of control; (dose: 12.5 mg/kg/injection, schedule: Q01DX009 (ip), vehicle: saline with Tween-80) 97 % of control; (dose: 25.0 mg/kg/injection, schedule: Q01DX009 (ip), vehicle: saline with Tween-80) 88 % of control; under setting [3], 96 % of control; under setting [4], 98 % of control; under setting [5], 96 % of control.

Regarding `O=Cc1c[nH]c(=O)[nH]c1=O`, the T/C under setting [6] was 91 % of control, the T/C under setting [7] was 99 % of control and the T/C under setting [8] was 88 % of control.

For `CCOC(=O)NC(=O)CC`, the T/C is 114 % of control (dose: 25.0 mg/kg/injection, schedule: Q01DX005 (ip), vehicle: saline); 102 % of control under setting [9]; 114 % of control (dose: 50.0 mg/kg/injection, schedule: Q01DX005 (ip), vehicle: saline); 102 % of control under setting [10]; 103 % of control and 104 % of control under setting [11]; 96 % of control (dose: 100.0 mg/kg/injection, schedule: Q01DX005 (ip), vehicle: saline). The T/C was 115 % of control under setting [12]; 96 % of control and 103 % of control and 213 % of control under setting [6]; 122 % of control (dose: 200.0 mg/kg/injection, schedule: Q01DX005 (ip), vehicle: saline); 112 % of control under setting [13]; 105 % of control and 112 % of control and 114 % of control under setting [7]; 106 % of control (dose: 400.0 mg/kg/injection, schedule: Q01DX009 (ip), vehicle: saline). In addition, the T/C runs as follows: under setting [8], 99 % of control and 113 % of control; (dose: 600.0 mg/kg/injection, schedule: Q04DX003 (ip), vehicle: saline) 114 % of control.

With `CC(=O)OCc1c(O)c2c(c(O)c1COC(C)=O)C(=O)C=CC2=O`, the T/C by setting is: (dose: 1.56 mg/kg/injection, schedule: Q01DX009 (ip), vehicle: saline) 107 % of control; (dose: 3.12 mg/kg/injection, schedule: Q01DX009 (ip), vehicle: saline) 96 % of control; (dose: 6.25 mg/kg/injection, schedule: Q01DX009 (ip), vehicle: saline) 105 % of control; (dose: 12.5 mg/kg/injection, schedule: Q01DX009 (ip), vehicle: saline) 87 % of control; under setting [9], 94 % of control.

`Cc1ccc2c(/C=C/c3ccc(N(C)C)cc3)ccnc2c1C`: the T/C under setting [4] was 120 % of control.

Take `C#CCOCC(CCl)OC(N)=O` (centres undefined): the T/C was 110 % of control under setting [3]; 114 % of control under setting [4]; 110 % of control under setting [6]; 107 % of control under setting [5]; 120 % of control under setting [7].

For `CN(C)c1ccc(/C=C2\NC(=O)NC2=O)cc1`, the T/C is, setting by setting: (dose: 100.0 mg/kg/injection, schedule: Q01DX001 (ip), vehicle: saline with Tween-80) 103 % of control; (dose: 200.0 mg/kg/injection, schedule: Q01DX001 (ip), vehicle: saline with Tween-80) 97 % of control; (dose: 400.0 mg/kg/injection, schedule: Q01DX001 (ip), vehicle: saline with Tween-80) 95 % of control.

Regarding `CCOC(=O)C(=O)N(Cc1cnc2nc(N)[nH]c(=O)c2n1)c1ccc(C(=O)NC(CCC(=O)O)C(=O)O)cc1` (centres undefined), the T/C was 96 % of control under setting [11], 103 % of control under setting [6] and 116 % of control under setting [7].

For `CCCCC(=O)NC(=O)c1ccccc1`, the T/C was 104 % of control under setting [4]; 108 % of control under setting [1]; 104 % of control under setting [5]; 104 % of control under setting [2]; 100 % of control under setting [14].

For `NC(=S)c1ccc(N)nc1`, the T/C by setting is: under setting [1], 103 % of control; under setting [2], 110 % of control; under setting [14], 110 % of control.

Take `CC(=O)OCc1ccc[n+](C2=C([O-])C(=O)C([n+]3cccc(COC(C)=O)c3)=C([O-])C2=O)c1`: the T/C by setting is: under setting [3], 104 % of control; under setting [4], 98 % of control; under setting [5], 102 % of control.

For `CC(C)COC(=O)C(C)Oc1ccc(Oc2ccc(Cl)cc2)cc1` (centres undefined), the T/C reads like this: under setting [3], 98 % of control; under setting [4], 116 % of control; under setting [5], 91 % of control.

As to `CC(C)(/C=C/c1ccccc1)C(=O)O`, the T/C under setting [3] was 95 % of control, the T/C under setting [4] is 102 % of control and the T/C under setting [5] is 100 % of control.

As for `O=C1CN(N2C(=O)CSC2C23CC4CC(CC(C4)C2)C3)C(=O)CN1c1ccccc1` (centres undefined), the T/C runs as follows: under setting [3], 92 % of control; under setting [4], 92 % of control.

As for `O=S(=O)(CBr)OCCCl`, the T/C by setting is: (dose: 50.0 mg/kg/injection, schedule: Q01DX005 (ip), vehicle: saline with Tween-80) 120 % of control; (dose: 100.0 mg/kg/injection, schedule: Q01DX005 (ip), vehicle: saline with Tween-80) 121 % of control; (dose: 200.0 mg/kg/injection, schedule: Q01DX005 (ip), vehicle: saline with Tween-80) 165 % of control.

Consider `O=C(O)CSC(CC(=O)O)C(F)(F)C(F)(F)C(F)(F)F` (centres undefined), for which the T/C under setting [9] was 90 % of control; the T/C (dose: 25.0 mg/kg/injection, schedule: Q04DX003 (ip), vehicle: saline) is 109 % of control; the T/C under setting [10] was 100 % of control; the T/C under setting [11] was 109 % of control; the T/C (dose: 75.0 mg/kg/injection, schedule: Q01DX009 (ip), vehicle: saline) was 110 % of control; the T/C under setting [12] was 95 % of control and 115 % of control. Moreover, the T/C under setting [6] was 109 % of control; the T/C (dose: 150.0 mg/kg/injection, schedule: Q01DX009 (ip), vehicle: saline) was 120 % of control; the T/C under setting [13] is 120 % of control; the T/C (dose: 300.0 mg/kg/injection, schedule: Q01DX009 (ip), vehicle: saline) was 110 % of control; the T/C under setting [8] is 122 % of control.

For `N#Cc1nc2c(n(O)c1=N)CCCCCCCCCC2`, the T/C was 95 % of control under setting [3], 92 % of control under setting [4] and 92 % of control under setting [5].

On to `Cc1nc2cnn(C)c2nc1C`, for which the T/C reads like this: under setting [11], 114 % of control; under setting [6], 113 % of control; under setting [7], 107 % of control; under setting [8], 88 % of control.

Regarding `C=CCNC(=O)c1ccccc1OCC(=O)O`, the T/C by setting is: (dose: 100.0 mg/kg/injection, schedule: Q01DX009 (ip), vehicle: gum acacia) 100 % of control; (dose: 100.0 mg/kg/injection, schedule: Q04DX003 (ip), vehicle: gum acacia) 100 % of control; (dose: 200.0 mg/kg/injection, schedule: Q01DX009 (ip), vehicle: gum acacia) 95 % of control; (dose: 200.0 mg/kg/injection, schedule: Q04DX003 (ip), vehicle: gum acacia) 91 % of control; (dose: 400.0 mg/kg/injection, schedule: Q01DX009 (ip), vehicle: gum acacia) 91 % of control; (dose: 400.0 mg/kg/injection, schedule: Q04DX003 (ip), vehicle: gum acacia) 108 % of control.
